# Assay results taken from EP0377642B1, “HERBICIDES FOR WEED CONTROL IN RICE” (E.I. DU PONT DE NEMOURS AND COMPANY, priority 1987, dated 1989).
# What was measured:
# Type in all cases: in vivo
# [1] = test system: FIMBRISTYLIS MILIACEA; experiment: Herbicidal efficacy alone and with 2,4-D in Thailand (Table 3); conditions: 600 GAI/HA, 6 weeks after application
# Source text: (§1) Methyl 2-[[[[(4-methoxy-6-methyl-1,3,5-triazin-2-yl)amino]carbonyl]amino]sulfonyl]benzoate (Compound 1) and mixtures thereof with other compounds were applied as a spray (using a hand sprayer) to rice (either transplanted or direct seeded) in several rice growing areas in Southeast Asia and in the U.S. Tables 1-28 contain the results of these tests and clearly exemplify the utility of this invention. The details of each application are included in the appropriate table. [drawing 2]
# [2] = test system: transplanted rice (var. Nihonbare); experiment: Crop tolerance of transplanted rice, combinations with Thiobencarb, Dimepiperate, Esprocarb and Dymron (Table 15); conditions: 2100 GAI/HA; 15 days after application
# Source text: as §1
# [3] = test system: WEED; experiment: Effects in combination with Bensulfuron Methyl and Thiobencarb or Pretilachlor on weed control (Table 24); conditions: rate 2100 g ai/ha, scale 0 to 10, treated at 1.0 leaf stage, evaluated four weeks later
# Source text: as §1
# [4] = test system: rice; experiment: Effects in combination with Thiobencarb and Bensulfuron Methyl on rice growth (Table 22); conditions: rate 2100 g ai/ha; var. Koshihikari, applied 7 days after transplanting, rated 21 days after application
# Source text: as §1
# [5] = test system: WEED; experiment: Effects in combination with Bensulfuron Methyl and Thiobencarb or Pretilachlor on weed control (Table 25); conditions: rate 2100 g ai/ha, scale 0 to 10, treated at 2.0 leaf stage, evaluated four weeks later
# Source text: as §1
# [6] = test system: rice; experiment: Effects in combination with Bensulfuron Methyl and Thiobencarb or Pretilachlor on rice growth (Table 23); conditions: var. Koshihikari, applied 7 days after transplanting, rated 21 days after application
# Source text: as §1
compound,measurement,setting,value
"CCCCOC(=O)COc1ccc(Cl)cc1Cl [2,4-D (BUTYL ESTER), reference compound]",FIMBRISTYLIS MILIACEA CONTROL,[1]; applied 7 DAS,94%
same,FIMBRISTYLIS MILIACEA CONTROL,[1]; applied 14 DAS,98%
same,FIMBRISTYLIS MILIACEA CONTROL,[1]; applied 21 DAS,60%
same,FIMBRISTYLIS MILIACEA CONTROL,[1]; applied 28 DAS,43%
"CCN(C(=O)SCc1ccccc1)C(C)C(C)C (stereo not drawn) [Esprocarb, S-benzyl-N-ethyl-N-(1,2-dimethyl)-propylthiol carbamate]","CROP TOLERANCE (Nihonbare) DW, dry weight relative to untreated check",[2],94%
same,"CROP TOLERANCE (Nihonbare) PH, plant height relative to untreated check",[2],92%
same,"CROP TOLERANCE (Nihonbare) VA, visual crop injury",[2],0%
"CCN(CC)C(=O)SCc1ccc(Cl)cc1 [Thiobencarb, S-[(4-chlorophenyl)methyl]diethylcarbamothioate, reference compound]",WEED CONTROL RATINGS CD,[3]; Cyperus difformis,10
same,WEED CONTROL RATINGS CS,[3]; Cyperus serotinus,9
same,WEED CONTROL RATINGS EO,[3]; Echinochloa oryzicola,10
same,WEED CONTROL RATINGS BL,[3]; Lindernia pyxidaria,9
same,WEED CONTROL RATINGS MV,[3]; Monochoria vaginalis,10
same,WEED CONTROL RATINGS SP,[3]; Sagittaria pygmaea,0
same,WEED CONTROL RATINGS SJ,[3]; Scirpus juncoides,7
same,"CROP TOLERANCE (Nihonbare) DW, dry weight relative to untreated check",[2],112%
same,"CROP TOLERANCE (Nihonbare) PH, plant height relative to untreated check",[2],102%
same,"CROP TOLERANCE (Nihonbare) VA, visual crop injury",[2],0%
same,CROP TOLERANCE DW (Dry weight relative to untreated check),[4],99%
same,CROP TOLERANCE PH (Plant height relative to untreated check),[4],99%
same,CROP TOLERANCE VA (Visual crop injury),[4],0%
same,WEED CONTROL RATINGS CD,[5]; Cyperus difformis,10
same,WEED CONTROL RATINGS CS,[5]; Cyperus serotinus,2
same,WEED CONTROL RATINGS EO,[5]; Echinochloa oryzicola,6
same,WEED CONTROL RATINGS BL,[5]; Lindernia pyxidaria,9.5
same,WEED CONTROL RATINGS MV,[5]; Monochoria vaginalis,10
same,WEED CONTROL RATINGS SP,[5]; Sagittaria pygmaea,0
same,WEED CONTROL RATINGS SJ,[5]; Scirpus juncoides,8.5
same,CROP TOLERANCE DW (Dry weight relative to untreated check),[6]; rate 2100 g ai/ha,81%
same,CROP TOLERANCE PH (Plant height relative to untreated check),[6]; rate 2100 g ai/ha,93%
same,CROP TOLERANCE VA (Visual crop injury),[6]; rate 2100 g ai/ha,2%
CCCOCCN(C(=O)CCl)c1c(CC)cccc1CC [Pretilachlor],CROP TOLERANCE DW (Dry weight relative to untreated check),[6]; rate 600 g ai/ha,71%
same,CROP TOLERANCE PH (Plant height relative to untreated check),[6]; rate 600 g ai/ha,87%
same,CROP TOLERANCE VA (Visual crop injury),[6]; rate 600 g ai/ha,3%
"Cc1ccc(NC(=O)NC(C)(C)c2ccccc2)cc1 [Dymron, 1-(α,α-dimethylbenzyl)-3-p-tolylurea]","CROP TOLERANCE (Nihonbare) DW, dry weight relative to untreated check",[2],107%
same,"CROP TOLERANCE (Nihonbare) PH, plant height relative to untreated check",[2],102%
same,"CROP TOLERANCE (Nihonbare) VA, visual crop injury",[2],0%
